{
  "source": "patent US20120083473A1",
  "about": "“TREATMENT OF CONDITIONS BY TOLL-LIKE RECEPTOR MODULATORS” (priority 2010, published 2012)",
  "key": {"[1]": {"tested_on": "murine peritoneal macrophages (PEC)", "assay": "Dose-response of M1 and M2 gene expression in PEC (RT PCR)", "type": "cell-based, mice", "settings": "PECs treated 4 hours or 20 hours with increased concentrations", "description": "A third group of experiments was performed to investigate the dose-response effects of TMX, its potency as compared to classical inflammatory signals (e.g. LPS) and the activation of selected transcription factors playing an established role in tolerance, as well as in the induction of M1/M2 polarized inflammatory programs. PECs treated for 4 hours or 20 hours with 100 ng/mlof LPS or increased concentrations of TMX or 1V209 were analyzed by RT PCR for the expression of representative M1 (TNFα, IL-12p40) and M2 (IL-10, TGFβ) genes. […] In this experiment, as compared to 1V209, TMX is a lower inducer of M1 genes expression.\nCell Culture and treatments. Peritoneal exudate cells (PEC) were harvested from mice injected with 1 ml of 3% (w/v) thioglycollate medium (Difco, Detroit, Mich.) 4 days prior to isolation. PECs were incubated in RPMI 1640 medium, containing 10% fetal bovine serum, 2 mM glutamine and 100 U/ml of penicillin-streptomycin. The concentration for the different treatments were as follows: LPS (100 ng/ml) (Lipopolysaccharide from Salmonella Abortus Equi S-form, Alexis), CpG (1 μg/ml), Pam3CSK (2 μg/ml), Poly I:C (10 μg/ml), Loxorubine (100 μM), flagellin (100 ng/ml) IL-1β (20 ng/ml), TNF (20 ng/ml), IL-10 (20 ng/ml) (Peprotech), IFNγ (200 U/ml) (Peprotech). To induce TMX tolerance, cells were incubated in the presence of TMX (10 μM or 1 μM) for 20 hrs, washed and maintained in RPMI medium for 2 hrs and then re-challenged with TMX (10 μM) for 4 hrs. To induce TMX-tolerization (T/M) cells were treated with TMX for 20 hrs, washed and then maintained in medium for additional 6 hours, without TMX re-challenge. To induce M1-activation, cells were incubated in medium for 20 hrs, washed, left in medium for 2 hrs and finally stimulated with TMX (10 μM) for 4 hrs. Control cells (M/M) were cultured in medium for the entire period of the experiment. For gene expression analysis, total RNA was extracted from TMX treated and untreated cells with trizol (Invitrogen), according to the manufacturer's instructions. To analyze cytokines and chemokines production supernatants were collected 24 hrs after the second challenge with TMX.\n(§1) Real-Time PCR. Total RNA was purified as previously described. Briefly, reverse transcription from 1 μg of RNA was performed using cDNA Archive kit (Applied Biosystem, NJ, USA). Real time PCR was performed using Power Syber Green PCR Master Mix (Applied Biosystem, NJ, USA) and detected by 7900HT Fast Real-Time System (Applied Biosystem, NJ, USA). Data were processed using the SDS2.2.2 software (Applied Biosystem, NJ, USA). Results were normalized to the expression of the housekeeping gene β-actin and then expressed as folds of upregulation, with respect to the control cell population."}, "human monocytes (Mo)": {"tested_on": "human monocytes (Mo)", "assay": "M1/M2 gene expression in human monocytes (Real-Time PCR)", "type": "cell-based", "settings": "excluding Mo from one healthy donor", "description": "To evaluate the effects of TMX on human cell activation, monocytes were isolated from buffy coats obtained from four different healthy donors. With respect to macrophage tolerance, cells were treated with Compound 2 (10 microM) up to 20 hours and then re-challenged with agonists/ligands of different TLRs (TLR2, TLR4, TLR5, TLR9, TLR7, etc. . . . ), including the TLR7 unconjugated ligand 1V209 (free pharmacophore) at a concentration of 10 microM.\nCell Culture and treatments. Monocytes (Mo) were obtained from buffycoats collected from healthy donors as previously described (Porta C et al, PNAS 2009). Cells were incubated in RPMI 1640 medium, containing 10% fetal bovine serum, 2 mM glutamine and 100 U/ml of penicillin-streptomycin. The concentrations for the different treatments were as follows: LPS (100 ng/ml) (Lipopolysaccharide from Salmonella Abortus Equi S-form, Alexis), CpG (1 microg/ml), Pam3CSK (2 microg/ml), Poly I:C (10 microg/ml), Loxorubine (100 microM), flagellin (100 ng/ml). To induce TMX tolerance, cells were incubated in the presence of TMX (10 microM) for 20 hrs, washed and maintained in RPMI medium for 2 hrs and then re-challenged with TMX (10 microM) for 4 hrs. To induce TMX-tolerization (T/M) cells were treated with TMX for 20 hrs, washed and then maintained in medium for additional 6 hours, without TMX re-challenge. To induce M1-activation cells were incubated in medium for 20 hrs, washed, left in medium for 2 hrs and finally stimulated with TMX (10 microM) for 4 hrs. Control cells (M/M) were cultured in medium for the entire period of the experiment. For gene expression analysis, total RNA was extracted from TMX treated and untreated cells with trizol (Invitrogen), according to the manufacturer's instructions. To analyze cytokines and chemokines production supernatants were collected 24 hrs after the second challenge with TMX.\nas §1, with “from 1 microgram of RNA” for “from 1 μg of RNA”, “performed using a cDNA Archive” for “performed using cDNA Archive”, “housekeeping gene 8-actin and then” for “housekeeping gene β-actin and then”"}, "[2]": {"assay": "PK analysis after i.v. administration in mice", "type": "in vivo"}, "[3]": {"assay": "Dissolution in suitable solvents for testing", "type": "physicochemical"}},
  "data": [
    {"smiles": "COCCOc1nc(N)c2[nH]c(=O)n(Cc3ccc(C(=O)O)cc3)c2n1", "note": "[Compound 1V209, 4-((6-amino-2-(2-methoxyethoxy)-8-oxo-7H-purin-9(8H)-yl)methyl)benzoic acid, reference compound]", "values": [
      {"measurement": "induction of both M1 and M2 gene expression", "setting": "[1]", "value": "dose-dependent induction"},
      {"measurement": "potency as compared to Compound 2 in terms of induction of both M1 and M2 gene expression", "setting": "human monocytes (Mo)", "value": "higher potency"}
    ]},
    {"smiles": "COCCOc1nc(N)c2nc(O)n(Cc3ccc(C(=O)NCCOCCOCCOCCOCCOCCOCCOCCOCCOCCOCCn4cc(CCC(=O)O)nn4)cc3)c2n1", "note": "[Compound 6, 3-(1-(1-(4-((6-amino-8-hydroxy-2-(2-methoxyethoxy)-9H-purin-9-yl)methyl)phenyl)-1-oxo-5,8,11,14,17,20,23,26,29,32-decaoxa-2-azatetratriacontan-34-yl)-1H-1,2,3-triazol-4-yl)propanoic acid]", "values": [
      {"measurement": "AUC in comparison with Compound 3", "setting": "[2]", "value": "lower"},
      {"measurement": "Cmax in comparison with Compound 3", "setting": "[2]", "value": "lower"},
      {"measurement": "clearance in comparison with Compound 3", "setting": "[2]", "value": "higher"},
      {"measurement": "half life in comparison with Compound 3", "setting": "[2]", "value": "longer"}
    ]},
    {"smiles": "CCCCCCCC/C=C\\CCCCCCCC(=O)OCC(COP(=O)(O)OCCNC(=O)c1ccc(Cn2c(=O)[nH]c3c(N)nc(OCCOC)nc32)cc1)OC(=O)CCCCCCC/C=C\\CCCCCCCC", "note": "(stereo not shown) [compound (6), 2-(4-((6-amino-2-(2-methoxyethoxy)-8-oxo-7H-purin-9(8H)-yl)methyl)benzamido)ethyl 2,3-bis(oleoyloxy)propyl phosphate]", "values": [
      {"measurement": "dissolution in suitable solvents for testing", "setting": "[3]", "value": "difficulty in dissolution"}
    ]}
  ]
}
